Test results published in paper PMC8805257, “Molecular and functional characterization of a conserved odorant receptor from Aedes albopictus” (Parasites & Vectors, 2022).

What was measured:
Type in all cases: cell-based
[1] = molecular target: T1, AalbOr11 (odorant receptor 11) (Aedes albopictus, UniProt A0ABM1ZVX3); test: two-electrode voltage clamp in Xenopus oocytes co-expressing AalbOr11/AalbOrco, concentration-response
T1 construct: with AalbOrco
T1 sequence (A0ABM1ZVX3 1-420): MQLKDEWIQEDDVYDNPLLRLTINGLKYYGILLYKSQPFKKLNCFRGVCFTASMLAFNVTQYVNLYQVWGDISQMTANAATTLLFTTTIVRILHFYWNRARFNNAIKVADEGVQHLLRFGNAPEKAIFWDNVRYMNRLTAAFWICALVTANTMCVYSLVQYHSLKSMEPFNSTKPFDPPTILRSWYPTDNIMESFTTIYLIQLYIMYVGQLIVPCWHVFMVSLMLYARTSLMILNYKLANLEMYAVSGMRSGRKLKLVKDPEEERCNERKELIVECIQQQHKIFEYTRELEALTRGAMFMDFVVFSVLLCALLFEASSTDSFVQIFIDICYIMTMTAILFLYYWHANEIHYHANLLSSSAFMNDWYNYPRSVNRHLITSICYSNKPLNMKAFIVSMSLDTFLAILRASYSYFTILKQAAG
T1 sequence (W8NXX6 1-479 partner): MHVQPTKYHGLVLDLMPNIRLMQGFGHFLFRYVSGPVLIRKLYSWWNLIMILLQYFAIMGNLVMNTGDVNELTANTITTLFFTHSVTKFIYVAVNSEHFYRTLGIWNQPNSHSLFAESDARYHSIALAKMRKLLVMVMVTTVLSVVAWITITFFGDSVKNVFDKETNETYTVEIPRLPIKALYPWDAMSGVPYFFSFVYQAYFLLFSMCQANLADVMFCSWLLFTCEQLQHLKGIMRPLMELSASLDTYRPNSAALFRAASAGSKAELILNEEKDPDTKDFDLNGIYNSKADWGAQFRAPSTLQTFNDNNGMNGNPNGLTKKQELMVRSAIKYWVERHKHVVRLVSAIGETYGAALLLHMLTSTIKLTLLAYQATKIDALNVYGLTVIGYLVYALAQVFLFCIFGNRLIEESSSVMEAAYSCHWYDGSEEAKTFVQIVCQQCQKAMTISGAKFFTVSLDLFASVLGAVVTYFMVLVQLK

[2] = molecular target: T1, AalbOr11 (odorant receptor 11); test: two-electrode voltage clamp in Xenopus oocytes; current […] nA at […]
[3] = molecular target: T1, AalbOr11 (odorant receptor 11); test: two-electrode voltage clamp in Xenopus oocytes co-expressing AalbOr11/AalbOrco, concentration-response; remark: listed apart in the source
[4] = molecular target: T1, AalbOr11 (odorant receptor 11); test: two-electrode voltage clamp in Xenopus oocytes, screen at […]

Row | SMILES | two-electrode voltage clamp in Xenopus oocytes; current >300 nA at 10^-4 M [2] | also measured
1 | CC(=O)c1cccs1 [2-acetylthiophene] | – | two-electrode voltage clamp in Xenopus oocytes co-expressing AalbOr11/AalbOrco, [1]: indole was replaced with 2-acetylthiophene to conduct concentration gradient assay
2 | CCc1ccccc1O [2-ethylphenol] | five aromatics 3-methylindole, 2-ethyltoluene, indole, acetophenone, and 2-ethylphenol | –
3 | CCc1ccccc1C [2-ethyltoluene] | – | EC50 [3]: 62.2 µM
4 | Cc1c[nH]c2ccccc12 [3-methylindole] | five aromatics 3-methylindole, 2-ethyltoluene, indole, acetophenone, and 2-ethylphenol | –
5 | CC1(C)C(=O)[C@@]2(C)CC[C@@H]1C2 [(+)-fenchone] | – | EC50 [3]: 139 µM
6 | CC1(C)C(=O)[C@]2(C)CC[C@H]1C2 [(−)-fenchone] | The seven strong ligands comprised two terpenes (+)-fenchone and (−)-fenchone | –
7 | CC(=O)c1ccccc1 [acetophenone] | five aromatics 3-methylindole, 2-ethyltoluene, indole, acetophenone, and 2-ethylphenol | –
8 | C=CCc1ccc(O)c(OC)c1 [eugenol] | – | two-electrode voltage clamp in Xenopus oocytes, screen at 10^-4 M [4]: except eugenol, which could activate AalbOr11 but could not activate AgOr11
9 | c1ccc2[nH]ccc2c1 [indole] | five aromatics 3-methylindole, 2-ethyltoluene, indole, acetophenone, and 2-ethylphenol | –
10 | COC(=O)c1ccccc1C [methyl-2-methylbenzoate] | – | two-electrode voltage clamp in Xenopus oocytes, screen at 10^-4 M [4]: AalbOr11 was sensitive to human odor, such as indole, 3-methylindole, and methyl-2-methylbenzoate
